Test results taken from patent US20160178637A1, “DETECTION OF ALPHA, BETA-DICARBONYL COMPOUNDS WITH FLUOROGENIC PROBES” (THE UNIVERSITY OF WARWICK, priority 2012, published 2016).

Key:
[1] = system: human leukaemia 60 cells (HL60); test: Fluorescence imaging of MG in isolated human leukaemia cells; assay type: cell-based; details: HL60 cells 1×10^5 per ml, DAF-2 10 μM 40 min 37° C., washed, 30-120 min; excitation laser 457 nm, emission filter 470-500 nm
[2] = Incubation of DAF-2 with the NO donor DETA-nonoate, fluorescence; assay type: physicochemical; details: DAF-2 50 μM + DETA-nonoate 10 μM, 10 mM sodium phosphate buffer pH 7.4, 37° C., one hour
Description: 4,5-Diaminofluorescein (DAF-2) was a fluorogenic probe developed for the detection of nitric oxide. 4,5-Diaminorhodamine (DAR), 8-(3,4-diaminophenyl)-2,6-bis(2-carboxyethyl)-4,4-difluoro-1,3,5,7-tetramethyl-4-bora-3a,4a-diaza-s-indacene (DAM BO-P″) and o-diaminocyanine are analogous o-diamino derivatizing agents based on different intense fluorophores. DAF-2 reacts with nitric oxide to form the fluorophore triazolofluorescein [6]. For example, incubation of DAF-2 (50 μM) with the NO donor (Z)-1-[2-(2-aminoethyl)-N-(2-ammonioethyl)amino]diazen-1-ium-1,2-diolate (DETA-nonoate), 10 μM, in 10 mM sodium phosphate buffer, pH 7.4 at 37° C., for one hour gave characteristic fluorescence of triazolofluorescein—excitation and emission maximum wavelengths of 491 and 515 nm, respectively. A further metabolite that reacts with DAF-2 is ascorbic acid which forms adducts DAF-2-DHA-5008 and DAF-2-DHA-518 which are fluorescent with excitation and emission wavelength maxima of 490 and 514 nm, respectively.

Nc1cc2c(cc1N)C1(OC2=O)c2ccc(O)cc2Oc2cc(O)ccc21 [DAF-2, 4,5-diaminofluorescein]
fluorescence image of endogenous MG in cells [1]: fluorescence indicate of the DAF-2 MG adduct

O=C1OC2(c3ccc(O)cc3Oc3cc(O)ccc32)c2ccc3[nH]nnc3c21 [triazolofluorescein]
emission maximum wavelength [2]: 515 nm | excitation maximum wavelength [2]: 491 nm
